Where two headings read alike, the source gives them in different places.
What was measured:
[1] = Method: 60 ppm concentration Deuterium Depleted Water was used for healthy adult outbred Wistar rats. Mono-chemotherapy was used to treat these animals using the following cytostatics: Vinblastine (VBL); Cyclophosphamide (CFS); 5-Fluorouracil (5-Fu); Farmarubicine (FARM). The administered doses were:
VBL—0.1 mg/kg body weight;
5-Fu—10 mg/kg body weight; and
FARM—1 mg/kg body weight.
The cytostatics were intra-peritoneally administered (i.p.) for 5 days consecutively.
The animals were distributed into two groups, as:
Animal sacrifice occurred over 5 and 10 days, respectively from the last cytostatic dose. After animal sacrifice, some tests were performed: bio-chemical, cyto-histological and morphological tests (on liver, spleen, kidneys), and tests for 3HTdR incorporation into lymphoid organs (bone marrow and lympho-nodules).
The protective effect of the 60 ppm Deuterium Depleted Water against the toxicity generated by cytostatics were studied using lots of 88 Wistar rats, each lot, males and females, with an average weight of 172 g. The animal lots were established as per GLP on pharmacological studies on laboratory-tested animals.

[2] = Measurement of protein, glycoprotein and serum protein glycolysis; assay type: in vivo, Wistar rats; settings: for Amount of glycolysis with Deuterium Depleted Water: 60 ppm DDW daily diet; for Percentage of decrease of protein glycolysis in animals receiving DDW: DDW versus tap water; for Amount of Glycolysis with Tap Water: tap water daily diet
Source text: The methods used for these measurements are well known (measuring burette and the (glucidic) glucose compound dosing in the reaction with orto-toluidine).

[3] = serum, 8 rats per lot
[4] = TW-control group (150 ppm Deuterium tap water daily diet)
[5] = DDW group, cytostatic i.p. 5 days
[6] = TW-control group similarly treated, animals with obvious toxicity signs had to be sacrificed
[7] = DDW group (daily diet with Deuterium Depleted Water)

Description for P450 cyto-chromes: To study it, the cell organelles were separated by repeated centrifugation with a final separation of microsomes at 105,000 g via ultra-centrifugation. At the microsomes level, the P450 cyto-chromes (a member of the iso-enzymes family) activity and concentration are measured, which are the most important indications of enzyme activation (MFO).
The P450 concentration is spectrophotometrically determined after CO and Natriumdithionit reduction of microsomal P450 (Omura and Sato method). […] The enzymatic activity has been determined for a single substratum, namely for p-nitroanisol, which involves a de-metilation reaction.

SMILES: O=c1[nH]cc(F)c(=O)[nH]1 [5-fluorouracil, 5-Fluorouracil]
- spontaneous mortality [1, 5]: no records of any spontaneous dead animals
- spontaneous mortality [1, 6]: spontaneous mortality occurred
- signs of toxicity during the 5 days of therapy and post-therapy period ([1]; rat, in vivo, ip): no signs of toxicity
- Amount of glycolysis with Deuterium Depleted Water [2]: 4.2 mg glucides/g proteins
- Percentage of decrease of protein glycolysis in animals receiving DDW [2]: 39%
- Amount of Glycolysis with Tap Water [2]: 6.89 mg glucides/g proteins
- Sialic acid (average values) [3, 7]: 2.43 mmol/L
- Sialic acid (average values) ([3]; TW-control group): 3.04 mmol/L
- P450 activity relative to the control group (P450 cyto-chromes; group of animals treated with Deuterium depleted Water): approximately 200%

SMILES: O=P1(N(CCCl)CCCl)NCCCO1 (stereo not drawn) [Cyclophosphamide]
- signs of toxicity during the 5 days of therapy and post-therapy period [1, 5]: no signs of toxicity
- spontaneous mortality [1, 5]: no records of any spontaneous dead animals
- spontaneous mortality [1, 6]: spontaneous mortality occurred
- Amount of glycolysis with Deuterium Depleted Water [2]: 5.47 mg glucides/g proteins
- Percentage of decrease of protein glycolysis in animals receiving DDW [2]: 17%
- Amount of Glycolysis with Tap Water [2]: 6.59 mg glucides/g proteins
- Sialic acid (average values) [3, 7]: 2.68 mmol/L
- Sialic acid (average values) ([3]; TW-control group): 2.77 mmol/L
- decrease of the phase I and II enzymes (P450 cyto-chromes; group TW-CFS): approximately 100%
- findings in peripheral blood [4]: anemia and granulopenia

SMILES: COc1cccc2c1C(=O)c1c(O)c3c(c(O)c1C2=O)C[C@@](O)(C(=O)CO)C[C@@H]3O[C@H]1C[C@H](N)[C@@H](O)[C@H](C)O1 [farmarubicine, Farmarubicine]
- spontaneous mortality [1, 5]: no records of any spontaneous dead animals
- spontaneous mortality [1, 6]: spontaneous mortality occurred
- signs of toxicity during the 5 days of therapy and post-therapy period ([1]; rat, in vivo, ip): no signs of toxicity
- Amount of glycolysis with Deuterium Depleted Water [2]: 6.3 mg glucides/g proteins
- Percentage of decrease of protein glycolysis in animals receiving DDW [2]: 35%
- Amount of Glycolysis with Tap Water [2]: 9.72 mg glucides/g proteins
- Sialic acid (average values) [3, 7]: 2.62 mmol/L
- Sialic acid (average values) ([3]; TW-control group): 2.88 mmol/L

SMILES: CC[C@]1(O)C[C@@H]2CN(CCc3c([nH]c4ccccc34)[C@@](C(=O)OC)(c3cc4c(cc3OC)N(C)[C@H]3[C@@](O)(C(=O)OC)[C@H](OC(C)=O)[C@]5(CC)C=CCN6CC[C@]43[C@@H]65)C2)C1 [vinblastine, Vinblastine]
- percentage of mortality ([1]; DDW group (60 ppm DDW daily diet), cytostatic i.p. 5 days): 25%
- percentage of mortality ([1]; TW-control group (tap water daily diet), cytostatic i.p. 5 days): 66%
- body weight increase ([1]; rat, in vivo): far more evident
- signs of toxicity during the 5 days of therapy and post-therapy period ([1]; rat, in vivo, ip): low intensity toxic effects
- Amount of glycolysis with Deuterium Depleted Water [2]: 7.5 mg glucides/g proteins
- Percentage of decrease of protein glycolysis in animals receiving DDW [2]: 7%
- Amount of Glycolysis with Tap Water [2]: 8.06 mg glucides/g proteins
- Sialic acid (average values) [3, 7]: 2.82 mmol/L
- Sialic acid (average values) ([3]; TW-control group): 3.00 mmol/L

Reference: patent US20080213390A1, “Deuterium Depleted Water (Ddw) Using As Adjuvant In Cancer Therapy For Cytostatics Toxicity Reducing” (priority 2005, published 2008)
